Experimental data published in patent publication US8680081B2, “Prophylactic treatment of migraine” (priority 2000, dated 2014).

Assays:
[1] = Prophylactic treatment of migraine by regular administration, patient case reports; format: in vivo, human
Protocol: The method for prophylactic treatment includes regular administration of a therapeutically effective amount of a combination comprising a cyclooxygenase-2 inhibitor and acetylsalicylic acid or active derivative. Administration of the combination including a cyclooxygenase-2 inhibitor may include administration of one or more cyclooxygenase-2 inhibitors.
The combination is administered regularly, meaning that the combination is administered periodically or aperiodically over a period of several days or weeks, in an effort to prevent migraine attacks, and is not merely administered in response or reaction to migraine symptoms. Regular administration may include once-daily administration of each agent, administration on alternate days, or any other periodic or aperiodic schedule that is determined to be effective as a planned course of treatment for preventing migraine.
A patient with an established history of recurrent migraine was treated with a daily oral dose of 25 milligrams of VIOXX (rofecoxib tablets, Merck & Co, Inc., Whitehouse Station, N.J.). […]
A patient with an established history of recurrent migraine was treated with a daily oral dose of 200 milligrams of CELEBREX (celecoxib capsules, G.D. Searle & Co., Chicago, Ill.).
A patient with a well-established history of recurrent migraine attacks heralded by an aura of dysphasia (i.e., difficulty in finding words) begins taking 25-50 milligrams of rofecoxib at the onset of the dysphasic symptoms. […] Because they have lately suffered more than four migraine attacks per month, on the advice of their physician they continue daily dosing of 12.5-25 milligrams of rofecoxib over time. […]

[2] = Targeted prophylactic treatment of migraine before a time window, trigger or attack, patient case reports; format: in vivo, human
From the text: In another embodiment, the invention provides a method for targeted prophylactic treatment of a migraine condition. The method includes determining a time window or selected time period in which a patient desires to be free from migraine; and administering to the patient, at a time prior to the determined time window, a therapeutically effective amount of a cyclooxygenase-2 inhibitor, either alone or in combination with acetylsalicylic acid or active derivative, to prevent or reduce migraine symptoms during the time window.
Prior to the determined time window, a therapeutically effective amount of a cyclooxygenase-2 inhibitor is administered to the patient. By “prior,” it is meant that the administration is temporally before the determined time window, but sufficiently close in time so that the prophylactic effect of the cyclooxygenase-2 inhibitor is experienced throughout most or all of the determined time window.
A patient with an established history of migraine brought on by glare associated with an ophthalmic operating room microscope was treated with 6 milligrams of IMITREX by injection (Glaxo Wellcome Inc.), and an oral dose of 12.5 to 25 milligrams of VIOXX (Merck & Co, Inc.) the night before a scheduled ophthalmic operation.
(§1) A patient with an established history of migraine brought on by glare associated with repeated use of a slit lamp biomicroscope was treated with an oral dose of 12.5 to 25 milligrams of VIOXX (Merck & Co, Inc.) the night before a scheduled clinic.
as §1, with “Inc.) and 325 milligrams aspirin (over-the-counter aspirin tablets)” for “Inc.)”
(§2) A patient with an established history of migraine brought on by occasional consumption of red wine (as a beverage or in a sauce or dressing) was treated with an oral dose of 12.5 to 25 milligrams of VIOXX (Merck & Co, Inc.) on the same day as such consumption before migraine attack symptoms are evident.
as §2, with “Inc.) and 162.5 milligrams aspirin (over-the-counter aspirin tablets)” for “Inc.)”
(§3) A patient with a well-established history of recurrent migraine attacks learns to recognize their prodromal symptoms of altered mood, irritability, fatigue, and craving for sweets which typically occur 3 to 24 hours prior to the fully developed phase of their migraine. They learn over time that these prodromal symptoms eventually lead to a migraine attack in most cases. Their migraine attacks typically include unusual sensitivity to light and sound, difficulty concentrating, headache, and less commonly, nausea. As soon as they recognize the prodromal symptoms, they take a one-time dose of 25-50 milligrams of rofecoxib, followed by 12.5-25 milligrams of rofecoxib daily.
as §3, with “rofecoxib and 162.5-325 milligrams aspirin,” for “rofecoxib,”, “rofecoxib and 162.5-325 milligrams aspirin” for “rofecoxib”, “daily. […]” for “daily.”

[3] = Example 1, daily oral 25 milligrams VIOXX, treatment period three to four weeks

## Cc1ccc(-c2cc(C(F)(F)F)nn2-c2ccc(S(N)(=O)=O)cc2)cc1 [CELEBREX, 4-[5-(4-methylphenyl)-3-(trifluoromethyl)-1H-pyrazol-1-yl]]
[1]; Example 4, daily oral 200 milligrams CELEBREX
  intensity of the symptoms of a subsequent migraine: reduced intensity
[1]; Example 4, daily oral 200 milligrams CELEBREX, treatment period ten to fourteen days
  migraine symptoms: free of migraine symptoms

## CS(=O)(=O)c1ccc(C2=C(c3ccccc3)C(=O)OC2)cc1 [VIOXX, 4-[4-(methylsulfonyl)phenyl]-3-phenyl-2(5H)-furanone]
[1]; Example 1, daily oral 25 milligrams VIOXX, first week of use
  migraine symptoms: free of migraine symptoms
[1]; [3]
  frequency of migraine attacks: reduced frequency
  intensity of the symptoms of subsequent migraine attacks: reduced intensity
[1]; Example 12, continued daily 12.5-25 milligrams rofecoxib
  frequency and intensity of the migraine attacks: substantial decrease in the frequency and intensity
[2]; Example 6, glare-induced migraine, oral 12.5 to 25 milligrams VIOXX the night before
  migraine symptoms before, during and after the scheduled clinic: free of migraine symptoms
[2]; Example 8, further daily oral 12.5 to 25 milligrams VIOXX after red wine
  duration of therapeutic benefit: extended for several days
[2]; Example 8, red wine-induced migraine, oral 12.5 to 25 milligrams VIOXX same day as consumption
  migraine symptoms in the period when symptoms would normally be expected: either free of, or experienced substantially reduced, migraine symptoms
[2]; Example 10, at prodromal symptoms one-time 25-50 milligrams rofecoxib, then 12.5-25 milligrams daily
  migraine attack symptoms: either free of, or has greatly reduced, migraine attack symptoms
[2]; Example 10, continued daily 12.5-25 milligrams rofecoxib
  period of benefit with continued daily dosing: several days (or longer)
[2]; Example 12, 25-50 milligrams rofecoxib at onset of dysphasic aura
  intensity and length of the migraine attack symptoms: reduction in the intensity and length
